From article PMC12385147, “Discovery of Novel 2-Substituted Aniline Pyrimidine Based Derivatives as Potent Mer/c-Met Dual Inhibitors with Improvement Bioavailability” (Biomolecules, 2025)
Like-named read-outs stand apart in the source and are kept apart here.

Tests used:
c-Met kinase = biological target: T1, c-Met kinase (Homo sapiens, UniProt P08581); experiment: c-Met kinase inhibition assay (TK-Sub-Biotin / cryptate detection); assay type: biochemical; conditions: means from three independent experiments
T1 construct: purchased Invitrogen (Shanghai, China)

MDA-MB-231 = experiment: Antiproliferation CCK-8 assay, MDA-MB-231; assay type: cell-based; conditions: Homo sapiens, CCK-8, 72 h
Protocol: The HepG2, MDA-MB-231, and HCT116 cell lines were derived from our own laboratory (the laboratory of our collaborator, Dr. Xiaolei Zhou, at College of Food Science and Biology in Hebei University of Science and Technology). The antiproliferative activities were assessed using the CCK-8 assay. Cell viability was measured according to the manufacturer’s instructions for the Cell Counting Kit-8 (Meilunbio, Dalian, China). In this assay, 2.5 × 10^3 cells per well were seeded into 96-well plates.
After an initial 12 h incubation, cancer cells were exposed to varying concentrations of compound 17c for 72 h. Following CCK-8 solution addition and 2 h incubation, the absorbance at 450 nm was measured using a BioTek Synergy HTX microplate reader. Experiments included triplicate wells with three independent replicates. The IC50 values for compound 17c were derived from an analysis of the dose–response curves in GraphPad PRISM 9.5.

CAKI-1 renal cancer = experiment: Antiproliferation CCK-8 assay, CAKI-1; assay type: cell-based
PC-3 prostate cancer = experiment: Antiproliferation CCK-8 assay, PC-3; assay type: cell-based
[1] = Plasma protein binding, equilibrium dialysis, human plasma; assay type: in vitro ADME; conditions: for fraction unbound at 6 h, 1 μM: human, plasma
[2] = Plasma protein binding, equilibrium dialysis, rat plasma; assay type: in vitro ADME
[3] = Pharmacokinetics in SD rats; assay type: in vivo; conditions: rat; for MRT inf: read-out: MRTINF_obs
Protocol: Male and female SD rats (SLRC Laboratory Animal Inc., Shanghai, China) were used for the study. In the oral (PO) administration, 3 rats per group were given a single 10 mg/kg dose. Blood samples (100 μL per time point) were collected via jugular vein cannula and taken at 5, 15, and 30 min, and 1, 2, 4, 8, and 24 h post-dose. For the intravenous (IV) administration, 3 rats per group received 2.0 mg/kg, and blood samples were collected at 5, 15, and 30 min, and 1, 2, and 4 h after dosing. Rats were fasted overnight prior to dosing and remained fasted for 6 h post-dose. Plasma was separated by centrifugation and stored at –40 °C until analysis. Compound concentrations were determined by LC/MS/MS (Shimadzu LC-30AD), and pharmacokinetic parameters, including Cmax, Tmax, T1/2, and AUC0-inf, were calculated.

HCT116 cells [4] = experiment: TUNEL apoptosis assay in HCT116 cells; assay type: cell-based; conditions: 48 h
Protocol: Apoptosis was analyzed in a dose-dependent manner using the One Step TUNEL Apoptosis Assay Kit (Meilunbio, Dalian, China). HCT116 cells (1.5 × 10^4 cells/well) were seeded onto TC-treated glass coverslips in 24-well plates and incubated for 24 h. Following this, the cells were exposed to varying concentrations of compound 17c for 48 h. After treatment, the cells were fixed with 4% paraformaldehyde and permeabilized with 0.3% Triton-X-100. TUNEL staining was performed as per the manufacturer’s guidelines, with DAPI used for nuclear counterstaining. Fluorescent images were obtained using an Olympus microscope. The ED50 value for compound 17c was calculated using GraphPad PRISM 9.5. Each assay was performed in triplicate and repeated three times for consistency.

HCT116 cells [5] = experiment: Transwell migration assay of HCT116 cells; assay type: cell-based; conditions: 24 h
Protocol: Migration assays were conducted using Transwell® inserts (Costar, Cambridge, MA, USA) with an 8 μm pore size polycarbonate membrane. HCT116 cells (1.5 × 10^5) were seeded into the upper chamber with serum-free medium containing 0.2% BSA, while the lower chamber contained medium supplemented with 15% FBS. Compound 17c was applied at the specified concentrations to both sides of the membrane. After 24 h of incubation at 37 °C, the cells were fixed in methanol and stained with 0.1% crystal violet. Non-migrated cells on the upper surface of the membrane were removed using a cotton swab. Five random fields per well were imaged under brightfield microscopy, and the number of migrated cells was quantified using ImageJ software (1.53c). Each experiment was performed in triplicate.

[6] = system: Mer kinase phosphorylation; experiment: Western blot, Mer phosphorylation in HCT116 cells; assay type: cell-based, human; conditions: 2.5 μM, 24 h, compared to the positive control
Protocol: (§1) Western blot assay was performed according to established protocols. HCT colon cancer cells were exposed to the specified concentration of compound 17c for 24 h, after which whole cell lysates were prepared using RAPI cell lysis buffer (Beyotime Institute of Biotechnology, Shanghai, China). Primary antibodies, purchased from Beyotime Institute of Biotechnology, were diluted at a ratio of 1:2000. The protein bands on polyvinylidene fluoride membranes were visualized and analyzed using Glyco Band-Scan Software Version 4.50. The antibody details are as follows:
Name: Phospho-MER/TYRO3 (Tyr753/Tyr685) antibody, Species: Rabit, Sequence: synthesized peptide derived from human MER/TYRO3 around the Phosphorylation site of Tyr753/Tyr685, Dilution: 1:2000, RRID number: AB_2840500, Catalogue number: AF8443, Supplier: Affinity Biosciences (Beijing, China).

[7] = system: c-Met kinase phosphorylation; experiment: Western blot, c-Met phosphorylation in HCT116 cells; assay type: cell-based, human; conditions: 2.5 μM, 24 h, compared to the positive control
Protocol: as §1
Name: Phospho-c-Met (Tyr1234) antibody, Species: Rabit, Sequence: synthesized peptide derived from human c-Met around the Phosphorylation site of Tyr1234, Dilution: 1:2000, RRID number: AB_2834564, Catalogue number: AF3129, Supplier: Affinity Biosciences (Beijing, China).

[8] = both sexes, plasma, iv, SD rats, 2 mg/kg
[9] = both sexes, plasma, po, SD rats, 10 mg/kg

T1 sequence (P08581 25-1390): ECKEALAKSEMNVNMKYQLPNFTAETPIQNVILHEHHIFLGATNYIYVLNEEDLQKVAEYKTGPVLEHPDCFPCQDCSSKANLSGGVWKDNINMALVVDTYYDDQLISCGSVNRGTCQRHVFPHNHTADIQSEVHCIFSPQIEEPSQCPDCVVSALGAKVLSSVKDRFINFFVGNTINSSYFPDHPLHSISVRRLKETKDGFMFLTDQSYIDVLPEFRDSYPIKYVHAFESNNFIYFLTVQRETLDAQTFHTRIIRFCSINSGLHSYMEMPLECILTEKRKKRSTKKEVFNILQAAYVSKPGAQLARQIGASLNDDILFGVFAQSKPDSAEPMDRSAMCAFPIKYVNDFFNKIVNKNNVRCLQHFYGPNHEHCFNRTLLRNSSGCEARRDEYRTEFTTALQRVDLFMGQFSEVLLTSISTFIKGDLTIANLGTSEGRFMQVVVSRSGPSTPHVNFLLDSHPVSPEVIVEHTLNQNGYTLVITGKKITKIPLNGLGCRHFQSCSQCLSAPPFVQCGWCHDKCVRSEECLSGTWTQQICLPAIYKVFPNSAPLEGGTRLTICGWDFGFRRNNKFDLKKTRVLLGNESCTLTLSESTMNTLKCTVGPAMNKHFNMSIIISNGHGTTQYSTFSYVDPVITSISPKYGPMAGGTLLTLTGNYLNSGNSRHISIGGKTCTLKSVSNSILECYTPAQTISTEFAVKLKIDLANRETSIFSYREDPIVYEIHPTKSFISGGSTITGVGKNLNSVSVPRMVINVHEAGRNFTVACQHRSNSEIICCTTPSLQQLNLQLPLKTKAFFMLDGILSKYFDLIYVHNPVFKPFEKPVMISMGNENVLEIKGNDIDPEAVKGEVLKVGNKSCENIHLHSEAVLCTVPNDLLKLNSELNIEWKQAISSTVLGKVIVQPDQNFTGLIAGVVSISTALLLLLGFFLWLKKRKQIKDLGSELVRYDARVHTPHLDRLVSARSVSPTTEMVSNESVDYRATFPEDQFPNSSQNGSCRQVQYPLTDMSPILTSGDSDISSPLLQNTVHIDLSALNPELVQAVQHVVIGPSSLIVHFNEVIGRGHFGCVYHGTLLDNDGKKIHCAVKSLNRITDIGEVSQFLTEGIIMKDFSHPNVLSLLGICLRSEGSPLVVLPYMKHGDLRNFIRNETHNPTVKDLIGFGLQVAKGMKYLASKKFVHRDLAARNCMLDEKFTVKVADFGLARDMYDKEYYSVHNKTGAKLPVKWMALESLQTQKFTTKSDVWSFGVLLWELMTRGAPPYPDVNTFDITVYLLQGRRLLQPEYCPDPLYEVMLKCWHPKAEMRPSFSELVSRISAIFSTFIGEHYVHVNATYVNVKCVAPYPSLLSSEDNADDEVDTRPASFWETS

IC50 (c-Met kinase): 0.0261 ± 0.0077 µM | IC50 (MDA-MB-231): 2.31 ± 0.67 µM | IC50 (CAKI-1 renal cancer; Homo sapiens, CAKI-1, CCK-8, read-out: IC50 CAKI-1 cells): 2.31 ± 0.67 µM | IC50 (PC-3 prostate cancer; Homo sapiens, PC-3, CCK-8, read-out: IC50 PC-3 cells): 3.79 ± 1.09 µM | Stability (%) ([1]; human plasma, 1 μM, 6 h at 37 °C): 99.3% | fraction unbound at 6 h, 1 μM ([1]; human plasma, 1 μM, fraction, read-out: Mean Fu): 0.0158 | fraction unbound at 6 h, 1 μM ([1]; human plasma, 1 μM, read-out: Mean Fb (PPB) (converted)): 0.016 | plasma protein-binding affinity ([1]; species not stated (abstract)): > 95% | Mean Fb ([2]; 1 μM): 98.2% | Stability (%) ([2]; 1 μM, 6 h at 37 °C): 102.2% | fraction unbound at 6 h, 1 μM ([2]; fraction, read-out: Mean Fu): 0.0178 | AUC(0-t) [3, 8]: 2150 ng·h/mL | half-life [3, 8]: 3.33 h | clearance ([3]; both sexes, plasma, iv, SD rats, i.v., 2 mg/kg, read-out: CL_obs): 16.4 mL/min/kg | MRT inf ([3]; both sexes, plasma, iv, SD rats, i.v., 2 mg/kg): 3.23 h | bioavailability ([3]; both sexes, plasma, oral, SD rats, p.o. 10 mg/kg vs i.v. 2 mg/kg, read-out: F (oral bioavailability)): 45.3% | AUC(0-t) [3, 9]: 4630 ng·h/mL | Cmax [3, 9]: 740 ng/mL | Tmax [3, 9]: 4 h | half-life [3, 9]: 3.46 h | MRT inf ([3]; both sexes, plasma, po, SD rats, p.o., 10 mg/kg): 6.52 h | oral bioavailability, fold higher than 18c ([3]; in vivo, po): 16 fold
SMILES: Cc1c(C(=O)Nc2ccc(Oc3ccnc(Nc4cccc(OC5CCN(C)CC5)c4)n3)cc2)c(=O)n(-c2ccccc2)n1C [compound 17c, 1,5-dimethyl-N-(4-((2-((3-((1-methylpiperidin-4-yl)oxy)phenyl)amino)pyrimidin-4-yl)oxy)phenyl)-3-oxo-2-phenyl-2,3-dihydro-1H-pyrazole-4-carboxamide]
fold enhancement compared to cabozantinib (CAKI-1 renal cancer; CAKI-1 cells): 2.0 fold | times more effective than cabozantinib (PC-3 prostate cancer; PC-3 cells): 4.1 times | ED50 apoptosis (TUNEL-positive cells) (HCT116 cells [4]): 2.036 µM | inhibition of HCT116 cell migration (HCT116 cells [5]): effectively inhibits the migration capacity | inhibition of Mer kinase phosphorylation [6]: significantly inhibited the phosphorylation | inhibition of c-Met kinase phosphorylation [7]: significantly inhibited the phosphorylation
